Here are results for 29 molecules from patent US10076519B2 (CYTOKINETICS, INC., priority 2010, dated 2018).

One test concerns rabbit skeletal myofibrils (fast skeletal myofibrils). The experiment in a line: Activation of fast skeletal myofibrils (PUMA assay, PK/LDH-coupled ATPase at pCa25). The format is biochemical. The settings on record: AC1.4 determined according to the procedure of Example 39; reported as class symbols. The method in brief: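 ATPase activity of Triton-washed rabbit skeletal myofibrils, roughly 90% fast fibres, tracked by NADH loss at 340 nm through a PK/LDH-coupled ADP-regenerating system. Calcium set to 25% of maximal activity (pCa25), in PIPES 12 mM pH 6.8 with 2 mM MgCl2 and 1 mM DTT; AC1.4 reported.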
As to `CC(=O)NCc1ccc(-c2ccc(NCC(C)(C)c3ccc(F)cc3)nn2)cn1` [N-{[5-(6-{[2-(4-fluorophenyl)-2-methylpropyl]amino}pyridazin-3-yl)-2-pyridyl]methyl}acetamide], the “Mean AC1.4” value is recorded as “C (C=10-20 uM)”. Same read-out and setting: to `CC(C)(CNc1ccc(-c2cccnc2)nn1)c1ccccc1Cl` [[2-(2-chlorophenyl)-2-methylpropyl](6-(3-pyridyl)pyridazin-3-yl)amine] belongs “B (B=1-10 uM)”. Same read-out and setting: to `CC(C)(CNc1ccc(-c2cncnc2)nn1)c1ccccc1Cl` [[2-(2-chlorophenyl)-2-methylpropyl](6-pyrimidin-5-ylpyridazin-3-yl)amine] belongs “B (B=1-10 uM)”; to `CC(C)(CNc1ccc(-c2ccccn2)nn1)c1ccc(F)cc1` [[2-(4-fluorophenyl)-2-methylpropyl](6-(2-pyridyl)pyridazin-3-yl)amine], “B (B=1-10 uM)”; to `CC(C)(CNc1ccc(-c2cccnc2)nn1)c1ccc(F)cc1` [[2-(4-fluorophenyl)-2-methylpropyl](6-(3-pyridyl)pyridazin-3-yl)amine], “B (B=1-10 uM)”. In the case of `CC(C)(CNc1ccc(C2=CCNCC2)nn1)c1ccc(F)cc1` [[2-(4-fluorophenyl)-2-methylpropyl](6-(4-1,2,5,6-tetrahydropyridyl)pyridazin-3-yl)amine], the “Mean AC1.4” value is “B (B=1-10 uM)”. On the same count and under the same terms, as for `CC(C)(CNc1ccc(-c2ccccc2)nn1)c1ccc(F)cc1` [[2-(4-fluorophenyl)-2-methylpropyl](6-phenylpyridazin-3-yl)amine], the entry is “A (A=<1 uM)”; as for `CC(C)(CNc1ccc(-c2cc[nH]n2)nn1)c1ccc(F)cc1` [[2-(4-fluorophenyl)-2-methylpropyl](6-pyrazol-3-ylpyridazin-3-yl)amine], “B (B=1-10 uM)”. With `CC(C)(CNc1ccc(-c2cn[nH]c2)nn1)c1ccc(F)cc1` [[2-(4-fluorophenyl)-2-methylpropyl](6-pyrazol-4-ylpyridazin-3-yl)amine], the “Mean AC1.4” value is recorded as “B (B=1-10 uM)”.

As to `CC(C)(CNc1ccc(-c2cnc3[nH]ncc3c2)nn1)c1ccc(F)cc1` [[2-(4-fluorophenyl)-2-methylpropyl](6-pyrazolo[5,4-b]pyridin-5-ylpyridazin-3-yl)amine], the “Mean AC1.4” value was “B (B=1-10 uM)”.

Turning to `CC(C)(CNc1ccc(-c2cnc3cc[nH]c3c2)nn1)c1ccc(F)cc1` [[2-(4-fluorophenyl)-2-methylpropyl](6-pyrrolo[3,2-b]pyridin-6-ylpyridazin-3-yl)amine], the “Mean AC1.4” value is listed as “A (A=<1 uM)”.

As to `CC(C)(CNc1ccc(-c2ccc3[nH]nc(NCC(F)(F)F)c3c2)nn1)c1ccc(F)cc1` [[2-(4-fluorophenyl)-2-methylpropyl](6-{3-[(2,2,2-trifluoroethyl)amino](1H-indazol-5-yl)}pyridazin-3-yl)amine], the “Mean AC1.4” value is “A (A=<1 uM)”. In the case of `CC(C)Nc1n[nH]c2ccc(-c3ccc(NCC(C)(C)c4ccc(F)cc4)nn3)cc12` [[2-(4-fluorophenyl)-2-methylpropyl](6-{3-[(methylethyl)amino](1H-indazol-5-yl)}pyridazin-3-yl)amine], the “Mean AC1.4” value is “A (A=<1 uM)”. Still for that read-out and setting: as for `Cn1ncc2ccc(-c3ccc(NCC(C)(C)c4ccc(F)cc4)nn3)cc21` [[2-(4-fluorophenyl)-2-methylpropyl][6-(1-methyl(1H-indazol-6-yl))pyridazin-3-yl]amine], the entry is “B (B=1-10 uM)”; as for `CC(C)(CNc1ccc(-c2ccccc2F)nn1)c1ccc(F)cc1` [[2-(4-fluorophenyl)-2-methylpropyl][6-(2-fluorophenyl)pyridazin-3-yl]amine], “A (A=<1 uM)”. Turning to `COc1ncccc1-c1ccc(NCC(C)(C)c2ccc(F)cc2)nn1` [[2-(4-fluorophenyl)-2-methylpropyl][6-(2-methoxy(3-pyridyl))pyridazin-3-yl]amine], the “Mean AC1.4” value was “A (A=<1 uM)”. The same measure, in the same setting: to `COc1ncc(-c2ccc(NCC(C)(C)c3ccc(F)cc3)nn2)cn1` [[2-(4-fluorophenyl)-2-methylpropyl][6-(2-methoxypyrimidin-5-yl)pyridazin-3-yl]amine] belongs “C (C=10-20 uM)”. Still for that read-out and setting: as for `Cc1nc2cc(-c3ccc(NCC(C)(C)c4ccc(F)cc4)nn3)ccc2[nH]1` [[2-(4-fluorophenyl)-2-methylpropyl][6-(2-methylbenzimidazol-5-yl)pyridazin-3-yl]amine], the entry is “B (B=1-10 uM)”; as for `Cc1nc2cc(-c3ccc(NCC(C)(C)c4ccc(F)cc4)nn3)ccc2o1` [[2-(4-fluorophenyl)-2-methylpropyl][6-(2-methylbenzoxazol-5-yl)pyridazin-3-yl]amine], “B (B=1-10 uM)”. Still for that read-out and setting: to `Cc1nc2ccc(-c3ccc(NCC(C)(C)c4ccc(F)cc4)nn3)cc2o1` [[2-(4-fluorophenyl)-2-methylpropyl][6-(2-methylbenzoxazol-6-yl)pyridazin-3-yl]amine] belongs “B (B=1-10 uM)”; to `CC(C)=Cc1ccc(NCC(C)(C)c2ccc(F)cc2)nn1` [[2-(4-fluorophenyl)-2-methylpropyl][6-(2-methylprop-1-enyl)pyridazin-3-yl]amine], “B (B=1-10 uM)”. For `CC(C)Cc1ccc(NCC(C)(C)c2ccc(F)cc2)nn1` [[2-(4-fluorophenyl)-2-methylpropyl][6-(2-methylpropyl)pyridazin-3-yl]amine], the “Mean AC1.4” value is “B (B=1-10 uM)”. Same read-out and setting: to `CC(C)(CNc1ccc(-c2cccc(F)c2)nn1)c1ccc(F)cc1` [[2-(4-fluorophenyl)-2-methylpropyl][6-(3-fluorophenyl)pyridazin-3-yl]amine] belongs “A (A=<1 uM)”; to `CC(C)(CNc1ccc(-c2ccc3[nH]nc(I)c3c2)nn1)c1ccc(F)cc1` [[2-(4-fluorophenyl)-2-methylpropyl][6-(3-iodo(1H-indazol-5-yl))pyridazin-3-yl]amine], “B (B=1-10 uM)”. On the same count and under the same terms, as for `Cc1n[nH]c2cc(-c3ccc(NCC(C)(C)c4ccc(F)cc4)nn3)ccc12` [[2-(4-fluorophenyl)-2-methylpropyl][6-(3-methyl(1H-indazol-6-yl))pyridazin-3-yl]amine], the entry is “B (B=1-10 uM)”.

Still in this test, the particulars now being: median AC1.4 class, procedure of Example 39.
`CC(=O)Nc1nccc(-c2ccc(NCC3(c4ncccc4F)CCC3)nn2)n1` [N-{4-[6-({[(3-fluoro-2-pyridyl)cyclobutyl]methyl}ami-no)pyridazin-3-yl]pyrimidin-2-yl}acetamide]: the “Mean AC1.4” value is “C (C=10-20 uM)”.

The test is the same for the next values; noted with them: median AC1.4 reported as class; procedure of Example 39.
As to `CNC(=O)Nc1ccc(-c2ccc(NC[C@]3(c4ncccc4F)C[C@H](F)C3)nn2)c(F)c1` [N-{3-fluoro-4-[6-({[3-fluoro-1-(3-fluoro(2-pyridyl))cyclobutyl]methyl}ami-no)pyridazin-3-yl]phenyl}(methylamino)carbox-amide], the “Mean AC1.4” value is on record as “A (A=<1 uM)”. On the same count and under the same terms, as for `CNC(=O)Nc1ccc(-c2ccc(NC[C@]3(c4ncccc4F)C[C@H](F)C3)nn2)cc1` [N-{4-[6-({[3-fluoro-1-(3-fluoro(2-pyridyl))cyclobutyl]methyl}ami-no)pyridazin-3-yl]phenyl}(methylamino)carbox-amide], the entry is “A (A=<1 uM)”; as for `CNC(=O)N(C)c1ccc(-c2ccc(NC[C@]3(c4ncccc4F)C[C@H](F)C3)nn2)cc1` [N-{4-[6-({[3-fluoro-1-(3-fluoro(2-pyridyl))cyclobutyl]methyl}ami-no)pyridazin-3-yl]phenyl}-N-methyl(methylamino)carboxamide], “D (D=>20 uM)”.
